{"source": "patent US9833424B2", "about": "“Application of fluoxetine to treatment of depigmentation diseases” (SHANDONG RUNZE PHARMACEUTICALS CO., LTD., priority 2011, dated 2017)", "key": {"[1]": {"tested_on": "tyrosinase activity in normal human skin tissue", "assay": "Tyrosinase activity of in vitro cultured normal human skin tissue (L-DOPA)", "assay_type": "cell-based", "details": "1-100 μM, 48 hours"}, "[2]": {"tested_on": "normal human melanocytes (NHMCs)", "assay": "Morphology of normal human melanocytes (NHMCs), phase-contrast microscopy", "assay_type": "cell-based", "details": "0.1-10 μM, 5 days, with increases in dosage"}, "[3]": {"tested_on": "human primary melanocytes", "assay": "Western blotting of melanin synthesis proteins (MITF, TYR, TRP-1, TRP-2) in human primary melanocytes", "assay_type": "cell-based", "details": "72 h, vs blank control"}, "[4]": {"tested_on": "B16F10 cells", "assay": "Cell migration (wound healing test) and morphology, B16F10 cells", "details": "48 hours, 0.1-10 μM"}, "[5]": {"details": "in vivo; cited from earlier work"}, "[6]": {"tested_on": "tyrosinase activity of B16F10 cells", "assay": "L-DOPA oxidation assay for measuring tyrosinase activity of B16F10 cells", "assay_type": "cell-based, mouse"}, "[7]": {"tested_on": "B16F10 cells", "assay": "MTT assay for measuring cell proliferation rate of B16F10 cells", "assay_type": "cell-based, mouse", "details": "0.1 to 10 μM"}, "[8]": {"tested_on": "tyrosinase activity of human primary melanocytes", "assay": "L-DOPA oxidation assay for tyrosinase activity of human primary melanocytes", "assay_type": "cell-based"}, "[9]": {"tested_on": "C57BL/6 mice", "assay": "Immunohistochemistry of melanin synthesis proteins in hair follicle melanocytes of C57BL/6 mice", "assay_type": "in vivo, mouse", "details": "20 mg/kg gavage, 12th day, immunohistochemical staining"}, "[10]": {"tested_on": "human primary melanocytes", "assay": "NaOH lysis method for measuring melanin content of human primary melanocytes", "assay_type": "cell-based"}, "[11]": {"tested_on": "normal human primary melanocytes", "assay": "MTT assay for measuring cell proliferation rate of human primary melanocytes", "assay_type": "cell-based", "details": "72 hours"}, "[12]": {"tested_on": "C57BL/6 mice", "assay": "Western blotting of melanin synthesis proteins in skin hair follicles of C57BL/6 mice", "assay_type": "in vivo, mouse", "details": "20 mg/kg gavage, 12th day"}, "[13]": {"tested_on": "in vitro cultured normal human skin tissue", "assay": "Melanin content of in vitro cultured normal human skin tissue (NaOH cracking process)", "assay_type": "cell-based", "details": "1 μM, 48 hours"}, "[14]": {"tested_on": "B16F10 cells", "assay": "Western blotting of melanin synthesis proteins (MITF, TYR, TRP-1, TRP-2) in B16F10 cells", "assay_type": "cell-based, mouse", "details": "72 h, vs blank control"}, "[15]": {"tested_on": "C57BL/6 mice", "assay": "Skin color on the back of hair-removed synchronized C57BL/6 mice after gavage", "assay_type": "in vivo, mouse", "details": "20 mg/kg gavage once a day, 12th day, vs solvent control group"}, "[16]": {"tested_on": "TYR activity in zebrafish", "assay": "TYR activity in PTU(35) group zebrafish", "assay_type": "in vivo", "method": "The zebrafish depigmentation model were obtained by treating zebrafish embryos with 1-phenyl 2-thiourea (PTU). […] All data were expression for at least three experiments. ***P<0.001 vs control; ^#P<0.05, ^##P<0.01, ^###P<0.001 vs PTU (35 h) group. Data expressed as mean±SD (n=40)."}, "[17]": {"tested_on": "A375 cells", "assay": "Cell migration (wound healing test) and morphology, A375 cells", "details": "48 hours, 0.1-10 μM"}, "[18]": {"tested_on": "B16F10 cells", "assay": "NaOH lysis method for determination of melanin content of B16F10 cells", "assay_type": "cell-based, mouse"}, "[19]": {"tested_on": "zebrafish embryos", "assay": "Melanogenesis in PTU-induced zebrafish depigmentation model", "assay_type": "in vivo", "details": "even at 1.0 μM, hour 12 to hour 60 after fertilization; especially in skin and eyes", "method": "The zebrafish depigmentation model were obtained by treating zebrafish embryos with 1-phenyl 2-thiourea (PTU). […] Both embryos were treated in 0.2 mM (“M” stands for “mole/liter” throughout this disclosure) PTU to inhibit melanogenesis from after fertilization until the time their pictures were taken, i.e., at hour 35 and hour 60, respectively, i.e., the PTU(35) group and the PTU(60) group. […] Data expressed as mean±SD (n=40)."}}, "data": [{"smiles": "CNCCC(Oc1ccc(C(F)(F)F)cc1)c1ccccc1", "note": "(centres unmarked) [fluoxetine, N-methyl-γ-[4-(trifluoromethyl)phenoxy] phenylpropylamine]", "values": [{"measurement": "activity of tyrosinase in skin tissue", "setting": "[1]", "result": "did not exhibit any change"}, {"measurement": "dendritic morphology of NHMCs (number and length of dendrites)", "setting": "[2]", "result": "the number as well as the length of the primary dendritic melanocytes increase significantly"}, {"measurement": "expression of protein MITF", "setting": "[3]", "result": "significantly improve"}, {"measurement": "expression of protein tyrosinase (TYR)", "setting": "[3]", "result": "significantly improve"}, {"measurement": "expression of tyrosinase-related protein 1 (TRP-1)", "setting": "[3]", "result": "significantly improve"}, {"measurement": "protein level of tyrosinase-related protein 2 (TRP-2)", "setting": "[3]", "result": "not significantly affected"}, {"measurement": "cell mobility", "setting": "[4]", "result": "may increase the mobility"}, {"measurement": "drug excreted in the stool", "setting": "[5]", "result": 15, "unit": "%"}, {"measurement": "drug excreted in the urine", "setting": "[5]", "result": "about 80%"}, {"measurement": "tyrosinase activity of B16F10 cells", "setting": "[6]; 72 hours, vs blank control, P<0.05 at 1 μM and 5 μM, P<0.01 at 10 μM", "result": "significantly promoted"}, {"measurement": "enzyme activity increase rate compared with positive drug psoralen", "setting": "[6]; B16F10 cells, fluoxetine in the highest concentration", "result": "close to that of the positive drug psoralen"}, {"measurement": "toxicity and carcinogenesis on B16F10 melanoma cells", "setting": "[7]", "result": "low toxicity and low carcinogenesis"}, {"measurement": "effect on the growth of B16F10 cells (cell proliferation rate)", "setting": "[7]; 72 hours, vs blank control, P>0.05", "result": "no significant effect"}, {"measurement": "tyrosinase activity of human primary melanocytes", "setting": "[8]; 72 hours, vs blank control, P<0.01", "result": "significantly promoted"}, {"measurement": "enzyme activity increase rate compared with positive drug psoralen", "setting": "[8]; human primary melanocytes, fluoxetine at 5 μM and 10 μM", "result": "exceeded that of the positive drug psoralen"}, {"measurement": "expression of tyrosinase (TYR) in hair follicle melanocytes", "setting": "[9]", "result": "significantly improve"}, {"measurement": "expression of tyrosinase-related protein 1 (TRP-1) in hair follicle melanocytes", "setting": "[9]", "result": "significantly improve"}, {"measurement": "expression of tyrosinase-related protein 2 (TRP-2) in hair follicle melanocytes", "setting": "[9]", "result": "significantly improve"}, {"measurement": "melanin content of human primary melanocytes", "setting": "[10]; 72 hours, vs control group, P<0.01", "result": "significantly increased"}, {"measurement": "melanin content increase rate compared with positive drug psoralen", "setting": "[10]; human primary melanocytes", "result": "close to or exceeded that of the positive drug psoralen"}, {"measurement": "toxicity on human primary melanocytes", "setting": "[11]", "result": "relatively low toxicity"}, {"measurement": "effect on the growth of normal human primary melanocytes", "setting": "[11]; vs blank control, P>0.05", "result": "no significant effect"}, {"measurement": "expression of protein MITF in skin hair follicles", "setting": "[12]", "result": "significantly improve"}, {"measurement": "expression of tyrosinase (TYR) in skin hair follicles", "setting": "[12]", "result": "significantly improve"}, {"measurement": "expression of tyrosinase-related protein 1 (TRP-1) in skin hair follicles", "setting": "[12]", "result": "significantly improve"}, {"measurement": "expression of tyrosinase-related protein 2 (TRP-2) in skin hair follicles", "setting": "[12]", "result": "significantly improve"}, {"measurement": "melanogenesis (melanin content) in skin tissue", "setting": "[13]", "result": "stimulates melanogenesis"}, {"measurement": "expression of protein MITF", "setting": "[14]", "result": "significantly improve"}, {"measurement": "expression of protein tyrosinase (TYR)", "setting": "[14]", "result": "significantly improve"}, {"measurement": "expression of tyrosinase-related protein 1 (TRP-1)", "setting": "[14]", "result": "significantly improve"}, {"measurement": "protein level of tyrosinase-related protein 2 (TRP-2)", "setting": "[14]", "result": "not significantly affected"}, {"measurement": "skin color in the hair-removed area of the skin", "setting": "[15]", "result": "significantly darkened"}, {"measurement": "TYR activity, dosage dependence", "setting": "[16]; PTU(35) group zebrafish, 10.0 μM compared with 1.0 μM", "result": "higher TRY activity than Flx(1.0 μM)"}, {"measurement": "TYR activity in the PTU(35) group zebrafish", "setting": "[16]; exposure for 48 hours (hour 12 to hour 60 after fertilization)", "result": "enhanced the TYR activity"}, {"measurement": "cell mobility", "setting": "[17]", "result": "may increase the mobility"}, {"measurement": "melanin content of B16F10 cells", "setting": "[18]; 1 to 10 μM, 72 hours, vs blank control, P<0.05 at 1 μM, P<0.01 at 5 μM and 10 μM", "result": "significantly increased"}, {"measurement": "melanin content increase rate compared with positive drug psoralen", "setting": "[18]; B16F10 cells", "result": "exceeded that of the positive drug psoralen"}, {"measurement": "melanogenesis in the PTU model zebrafish", "setting": "[19]", "result": "increased melanogenesis"}]}]}
